Measured values from patent US8193235B2, “Compositions and methods for establishing and maintaining stem cells in an undifferentiated state” (University of Kansas, priority 2009, dated 2012).

How the values were obtained:
[1] = test system: Oct4 and Nanog promoter regions; test: DNA methylation analysis (bisulfite sequencing, MSP); format: cell-based, mouse; conditions: E14 cells, 5 days on collagen-IV
Text: DNA Methylation Analysis. One μg of genomic DNA was subjected to bisulfite treatment using CPGENOME Fast DNA Modification Kit (Chemicon Int.). For bisulfite sequencing, the modified DNA was amplified by nested polymerase chain reaction (PCR) using two forward (F) primers and one reverse (R) primer: Oct4 (F1, 5′-GTTGTTTTGTTTTGGTTTTGGATAT-3′, SEQ ID NO:57; F2, 5′-ATGGGTTGAAATATTGGGTTTATTTA-3′, SEQ ID N:58; and R, 5′-CCACCCTCTAACCTTAACCTCTAAC-3′, SEQ ID NO:59) and Nanog (F1, 5′-GAGGATGTTTTTTAAGTTTTTTTT-3′, SEQ ID NO:60; F2, 5′-AATGTTTATGGTGGATTTTGTAGGT-3′, SEQ ID NO:;61; and R, 5′-CCCACACTCATATCAATATAATAAC-3′, SEQ ID NO:62). The resulting PCR product was gel purified, subcloned into pGEM-T vector (Promega) and sequenced using M13R primer. Following primers were used for MSP: Oct4, (F) 5′-GGTTTTAGAAATAATTGGTATACGA-3′ (SEQ ID NO:63), and (R) 5′-CTATTAACACTACACCCTCTCGAC-3′ (SEQ ID NO:64); and Nanog, (F) 5′-ATTTGTGAGTATAAGGATTGATCGG-3′ (SEQ ID NO:65), and (R) 5′-TTTCTTTAAAATAAAATTTCACGTA-3′ (SEQ ID NO:66). PCR products were analyzed on agarose gel.

[2] = test system: PKCζkd cells; test: PKCζkd cells cultured on collagen IV without LIF; format: cell-based, mouse
Text: ES Cell Differentiation on Collagen-IV and With Retinoic Acid. To differentiate ES cells in monolayer culture on collagen IV, around 3×10^4 cells per well were transferred to collagen IV-coated 6-well plates (BD Biosciences, Franklin Lakes, N.J.) cultured for 5 days in ES differentiation medium containing DMEM (Invitrogen), 15% FBS (selected for endothelial differentiation, Stem Cell Technologies, Vancouver, BC), sodium pyruvate and L-glutamine with or without LIF and Gö6983, and were recovered by cell dissociation buffer (BD Biosciences, Franklin Lakes, N.J.). For culturing multiple passages with Gö6983 on collagen-IV, the recovered cells were again plated at a density of ˜3×10^4 cells per well and cultured again for 5 days. […] For RA-induced differentiation on monolayer culture, ES cells were treated with all-trans-retinoic acid (Sigma, St. Louis, Mo.) in ethanol at a concentration of 1 μM with or without LIF and Gö6983 for 6 days followed by study of expression of pluripotency markers (by immunofluorescence or western blot or RT-PCR analysis).
RNA Interference and Rescue of PKCζ Expression in RKCζkd Cells. Lentiviral vectors containing short hairpin RNAs (shRNAs) targeting mouse PKCζ mRNA were cloned in pLKO1 (Open Biosystems, Huntsville, Ala.). Lentiviral supernatants were produced in HEK-293T cells according to known methods (Dutta, et al. (2008) supra). […]

[3] = test system: RelA and LGL1/2; test: Phosphorylation of PKC ζ target proteins in mESCs; format: cell-based, mouse
Procedure: Western Blot Analysis. Whole cell lysates were prepared in SDS-gel loading buffer and resolved by 10% PAGE. The antibodies used for this study included β-actin Clone AC-15 from Sigma; p-STAT3 (Tyr705), p-p44/42 MAPK (tyr202/tyr204), p44/42 MAPK, GSK3β, Phospho Akt (Ser473), Akt, p-NFκβ p65 (Ser536), c-Myc, p-c-Myc (Thr58/Ser62), p-p90RSK (Thr359/Ser363), RSK1, Suz12 (D39F6), and Ezh2 (AC22) from Cell Signaling Technology; STAT3 (C-20), Oct-4 (C-10), Nanog (M-149), PKC α (C-20), PKC βI (C-16), PKC βII (C-18), PKC γ (C-19), PKC δ (C-20), PKC ζ (c-20), p-PKC ζ (Thr 410)-R, p-NFκβ p65 (ser311), and RelA (p65) from Santa Cruz Biotechnology; p-LGL1/LGL2 (S650/S654), SSEA4and H3K4Me3 from Abcam; LGL2 (M06), clone 4G2 from Abnova; β-Catenin from BD Transduction Laboratories, and H3K27Me3 and H3K9Me3 from Millipore.

[4] = test system: Eed−/− ES cells; test: Eed−/− ES cells on collagen IV without LIF
Text: Eed^−/− ES Cells. Eed^−/− ES cells, passage 4, were maintained in same medium as mentioned for Ezh2^−/− cells but supplemented with extra LIF (2000 U/ml) to suppress spontaneous differentiation.

SMILES: COc1ccc2c(c1)c(C1=C(c3c[nH]c4ccccc34)C(=O)NC1=O)cn2CCCN(C)C [Gö6983, 3-[1-[3-(dimethylamino)propyl]5-methoxy-1H-indol-3-yl]-4-(1H-indol-3-yl)-1H-pyrrole-2,5-dione]
- DNA methylation of promoter regions of Oct4 and Nanog [1]: remained largely unmethylated
- expression of pluripotency markers in PKCζkd cells on collagen IV ([2]; FIG. 2C): maintained the expression of pluripotency markers
- differentiation of PKCζkd cells on collagen IV ([2]; without LIF): inhibited differentiation of PKCζkd cells
- phosphorylation of RelA and LGL1/2 [3]: impaired
- colony morphology and pluripotency markers of Eed−/− cells ([4]; collagen IV without LIF): largely maintained undifferentiated colony morphology and expression of pluripotency markers
- expression of developmental regulator genes in Eed−/− cells ([4]; in the presence of Gö6983): significantly induced
